Data from patent publication US11485700B2, “Synthesis of (+)-cannabinoids and their therapeutic effects” (SYMRISE AG, priority 2018, dated 2022).
Where two headings read alike, the source gives them in different places.

Columns and labels:
[1] = tested on: LPS-treated human monocytes; test: LPS-induced inflammatory parameters in human monocytes; format: cell-based; conditions: for inhibition at 25 µM: Homo sapiens, Monocyte, maximal effect at 25 μM
Description: (§1) Cell cultures: Human primary monocytes were extracted from the whole blood of medically healthy volunteers, who provided written informed consent at the local blood bank (University Hospital of Freiburg, Germany), following a standardized protocol (gradient preparation, Lymphocytes separation medium, PAN Biotech, P04-60125, Aidenbach, Germany) using completely endotoxin-free cultivation. Using 50 ml tubes, 25 ml Pancoll was loaded with 25 ml of blood (buffy coats). The gradient was established by centrifugation at 1800 rpm, 20° C. for 40 min with slow acceleration and deceleration. Peripheral blood mononuclear cells in the interphase were carefully removed and re-suspended in 50 ml pre-warmed phosphate-buffered saline (PBS) (Pan Biotech, P04-36500), followed by centrifugation for 10 min at 1600 rpm and 20° C. The supernatant was discarded and the pellet washed in 50 ml PBS and centrifuged as described above. The pellet was then re-suspended in 50 ml RPMI-1640 low-endotoxin medium supplemented with 10% human serum (Hexcell, Berlin, Germany, SP2080). After counting the number of cells in a particle counter (Euro Diagnostics, Krefeld, Germany), cells were seeded in 24-well plates for enzyme linked immunosorbent assay (ELISA) (2.2 mio. cells/well) or 96-well plates at a density of 2×10^4 cells/well for cell viability testing, and incubated at 37° C. with 5% CO2. The medium and the non-adherent cells (lymphocytes) were removed and fresh RPMI-1640 medium containing 1% human serum added. Enriched monocytes were then ready to be used for the experiments. Primary human fibroblasts and HaCat keratinocytes were obtained from the Uniklinik Freiburg. All cells were maintained in supplemented DMEM (Invitrogen, Life-Technologies, Darmstadt, Germany) medium containing 10% FBS (Bio&Sell, Feucht, Germany) and 1% antibiotics penicillin/streptomycin (from Invitrogen, DMEM complete medium) at 37° C. in a humidified atmosphere of 5% CO2.
Measurement of cytokines and PGE2 in primary human monocytes: Cells were incubated with LPS (Sigma-Aldrich, Taufkirchen, Germany, 10 ng/ml) for 24 h. The cannabinoids (5 doses) were added 30 min before LPS treatment. After 24 h, supernatants were removed, centrifuged and investigated for IL-1beta, IL-8, IL-6, TNFalpha, MMP9, isoprostane, and PGE2 concentrations in EIAs (PGE2 and isoprostane, from Cayman/Biomol, Hamburg, Germany) or ELISAs (IL-1beta, Hiss, Freiburg, Germany; TNFalpha, IL-6 and IL-8, ImmunoTools, Frysoithe, Germany, MMP9, Biotechne, Wiesbaden, Germany) using manufacturer's protocol. The respective extinction was determined using a 96-well plate reader (Berthold, Offenburg, Germany). Each dose was analyzed 4 times in two buffy coats from 2 different donors (2 buffy coats used from 2 different healthy blood donors with final n=4 values).

[2] = tested on: IL-1-treated human dermal fibroblasts; test: IL-1-induced inflammatory parameters in human dermal fibroblasts; format: cell-based; conditions: IL-1beta 10 U/ml, 24 h; for inhibition of IL-1-induced PGE2 / inhibition of IL-1-stimulated IL-6 release / inhibition of IL-1-stimulated IL-8 release: maximal effect, doses up to 25 μM
Description: as §1
Determination of inflammatory molecules in fibroblasts: Primary human fibroblasts were cultivated as described above and seeded (500000 cells/well) in 24-well plates. Cells were incubated with IL-1beta (Roche, Mannheim, Germany, 10 U/ml) in absence and presence of the cannabinoids (5 doses, n=3) for 24 h. Unstimulated cells served as a negative control. 24 h after cell stimulation, supernatants were removed, centrifuged and investigated for IL-6, PGE2, and IL-8 concentrations by ELISAs according to the manufacturer's protocol (PGE2 from Cayman/Biomol, Hamburg, Germany; IL-6, and IL-8 from Immuno-tools, Frisoythe, Germany). The respective extinction is determined using a 96-well plate reader (Berthold, Offenburg, Germany).

CB2 receptor [3] = biological target: T1, CB2 receptor (Homo sapiens (Human), UniProt P34972); test: In vitro binding to CB2 receptor, [3H]-CP55940 radioligand displacement
Description: (§2) Compounds with an expected profile as CB1 and/or CB2 receptor ligands were evaluated by competition studies that allow determining the affinity of these compounds (Ki values) for both receptors against a classical cannabinoid ligand. The competition studies were conducted with membranes transfected with either CB1 or CB2 receptors. For stock solutions the compounds were dissolved at concentrations of 50 and 100 mM and stored at −20° C.
(§3) 96-well plates and the tubes necessary for the experiment were siliconized with Sigmacote (Sigma). Membranes were resuspended in the corresponding buffer and were incubated with the radioligand and each compound for 90 min at 30° C. Non-specific binding was determined with 10 μM WIN55212-2 and 100% binding of the radioligand to the membrane was determined by its incubation with membrane and without any compound. Filtration was performed by a Harvester®filtermate (Perkin-Elmer) with Filtermat A GF/C filters pretreated with polyethylenimine 0.05%. After filtering, the filter was washed nine times with binding buffer, dried and a melt-on scintillation sheet (Meltilex™ A, Perkin Elmer) was melted onto it. Then, radioactivity was quantified by a liquid scintillation spectrophotometer (Wallac MicroBeta Trilux, Perkin-Elmer).
(§4) Radioligand displacement assays were used to evaluate the affinity of the new compounds using membranes from cells (HEK293EBNA) transfected with the CB1 or the CB2 receptors and [^3H]-CP55940 as radioligand. The evaluation of the compounds was conducted in two phases. The first phase consisted in a simple screening with a unique and high concentration of each compound (40 μM). The data was collected from at least three experiments performed in triplicate. […] This consisted of a competition study with [^3H]CP55940 (0.10 nM for CB1 and 0.15 nM for CB2) and different concentrations of the selected compounds (10^−4-10^−11M). The data was analyzed, by using GraphPad Prism® version 5.01 (GraphPad Software Inc., San Diego, Calif., USA), for the calculation of Ki values expressed as mean±SEM of at least three experiments performed in triplicate for each point.

CB1 receptor = CB1 receptor (Homo sapiens (Human), UniProt P21554); test: In vitro binding to CB1 receptor, [3H]-CP55940 radioligand displacement
Description: as §2, §3, §4

[4] = tested on: PolyIC-treated human keratinocytes (HaCat); test: Poly I:C-induced proteases in human HaCat keratinocytes; format: cell-based; conditions: Poly I:C 10 μg/ml, 24 h; for inhibition at 25 µM: Homo sapiens, HaCaT; for inhibition of Poly I:C-stimulated TIMP1: maximal effect, doses up to 25 μM
Description: as §1
Determination of MMPs and TIMPs in keratinocytes: Keratinocytes (HaCat) were cultivated as described above. Cells were seeded in 24-well plates incubated with Poly I:C (InvivoGen, San Diego, Calif.; USA, 10 μg/ml) in absence and presence of the cannabinoids (5 doses, n=3) for 24 h. Unstimulated cells served as a negative control. 24 h after cell stimulation, supernatants were removed, centrifuged and investigated for MMP1, MMP9 and TIMP1 concentrations by ELISAs according to the manufacturer's protocol (from Biotechne, Wiesbaden, Germany). The respective extinction was determined using a 96-well plate reader (Berthold, Offenburg, Germany).

primary human monocytes = test: Cell viability in human monocytes (Alamar Blue); format: cell-based; conditions: 24 h
Description: Cell cultures: Human primary monocytes were extracted from the whole blood of medically healthy volunteers, who provided written informed consent at the local blood bank (University Hospital of Freiburg, Germany), following a standardized protocol (gradient preparation, Lymphocytes separation medium, PAN Biotech, P04-60125, Aidenbach, Germany) using completely endotoxin-free cultivation. Using 50 ml tubes, 25 ml Pancoll was loaded with 25 ml of blood (buffy coats). The gradient was established by centrifugation at 1800 rpm, 20° C. for 40 min with slow acceleration and deceleration. Peripheral blood mononuclear cells in the interphase were carefully removed and re-suspended in 50 ml pre-warmed phosphate-buffered saline (PBS) (Pan Biotech, P04-36500), followed by centrifugation for 10 min at 1600 rpm and 20° C. The supernatant was discarded and the pellet washed in 50 ml PBS and centrifuged as described above. […] Enriched monocytes were then ready to be used for the experiments. […]
Cell viability: Cells were incubated with the cannabinoids (3 doses, n=4) for 24 h. Cytotoxicity was analyzed by Alamar Blue staining (formazan). […] The plate was then incubated at 37° C. for 2 h in a humidified 5% CO2 atmosphere, and the color reaction determined using a 96-well plate reader (Berthold, Offenburg, Germany, excitation 544 nm, emission 590 nm). […]

CB2 receptor [5] = biological target: T1, CB2 receptor; test: CB2 antagonistic activity, CRE-Luc assay in HEK 293T-CB2 cells; format: cell-based; conditions: WIN 55,212-2 repression of forskolin-induced CRE-Luc
Description: HEK 293T-CB1 and HEK 293T-CB2 cells (stably transfected with CB1 and CB2 cDNAs) (10^5/ml) were incubated in 24-well plates and transiently transfected with 0.5 μg/ml of the plasmid CRE-Luc that contains six consensus cAMP responsive elements (CRE) linked to firefly luciferase. Transient transfections were performed with Rotifect (Carl Roth GmbH, Karlsruhe, Germany) according to the manufacturer's instructions and harvested 24 h after transfection.
For CB2 antagonistic activity in cells the potential repression of Forskolin-induced CRE-luc inhibition induced by the compounds was analyzed.
After six hours of stimulation the cells were lysed (in 25 mM Tris-phosphate pH 7.8, 8 mM MgCl2, 1 mM DTT, 1% Triton X-100, and 7% glycerol) and luciferase activity was measured using an Autolumat LB 9501 (Berthold Technologies, Bad Wildbad, Germany) following the instructions of the luciferase assay kit (Promega, Madison, Wis.). The background obtained with the lysis buffer was subtracted in each experimental value, and the specific transactivation expressed as fold induction over basal levels (CRE-Luc).
The potential antagonistic activities of the compounds on the CB2 receptor were studied in the following. […] The negative control (untreated cells, 0% activation) is not listed.

[6] = read-out: inhibition of Poly I:C-induced MMP1
[7] = read-out: inhibition of Poly I:C-stimulated MMP9
[8] = LPS 10 ng/ml, 24 h, read-out: inhibition of LPS-stimulated PGE2 release
[9] = LPS 10 ng/ml, 24 h, maximal effect, doses up to 25 μM

Row | SMILES | doses inhibiting LPS-induced IL-6 ([1]; LPS 10 ng/ml, 24 h) | doses inhibiting LPS-induced IL-8 ([1]; LPS 10 ng/ml, 24 h) | doses inhibiting IL-1-induced PGE2 [2] | doses inhibiting IL-1-stimulated IL-6 release [2] | doses inhibiting IL-1-stimulated IL-8 release [2] | inhibition of IL-1-induced PGE2 [2] | inhibition of IL-1-stimulated IL-6 release [2] | inhibition of IL-1-stimulated IL-8 release [2] | Ki (CB2 receptor [3]) | inhibition at 25 µM [4, 6] | inhibition at 25 µM [4, 7] | inhibition of Poly I:C-stimulated TIMP1 [4] | inhibition at 25 µM [1, 8] | doses inhibiting LPS-stimulated PGE2 release ([1]; LPS 10 ng/ml, 24 h) | doses inhibiting LPS-stimulated TNFalpha release ([1]; LPS 10 ng/ml, 24 h) | inhibition of LPS-stimulated TNFalpha release [1, 9] | doses affecting cell viability (primary human monocytes) | further results
1 | C=C(C)[C@H]1CCC(C)=C[C@@H]1c1c(O)cc(CCCCC)c(C(=O)OCC(O)CCC)c1O (single isomer, unassigned; (+)) [(+)-CBD-HPE, (+)-Cannabidiol hydroxypentylester] | ≥ 10 µM | 25 µM | 25 µM | ≥ 10 µM | ≥ 10 µM | 50% | 95% | 95% | 0.8 nM | 20% | 40% | 60% |  |  |  |  |  | doses increasing LPS-mediated IL-1beta ([1]; LPS 10 ng/ml, 24 h): 25 µM; doses inhibiting LPS-stimulated MMP9 ([1]; LPS 10 ng/ml, 24 h): 25 µM; Ki (CB1 receptor): 3.1 nM; CB1/CB2 selectivity (CB1 receptor; ratio of CB1-Ki to CB2-Ki): 3.9
2 | C=C(C)[C@H]1CCC(C)=C[C@@H]1c1c(O)cc(CCCCC)cc1O [(+)-CBD, (+)-Cannabidiol] |  | 25 µM |  | ≥ 0.1 µM | ≥ 0.1 µM | more than 80% | more than 90% | more than 90% |  | ~40% | ~40% | ~70% | ~80% | ≥ 1 µM | ≥ 0.1 µM | around 80% | ≥ 25 µM | doses inhibiting Poly I:C-induced MMP1 [4]: 25 µM; doses inhibiting Poly I:C-stimulated MMP9 [4]: ≥ 5 µM; doses inhibiting Poly I:C-stimulated TIMP1 [4]: ≥ 5 µM
3 | C=C(C)[C@H]1CCC(C)=C[C@@H]1c1c(O)cc(CCCCC)c(C(=O)OCCO)c1O [(+)-CBD-GE, (+)-Cannabidiol glycolester] | ≥ 0.1 µM |  | ≥ 5 µM | ≥ 5 µM | ≥ 5 µM | approx. 80% | around 95% | around 95% | 12.9 nM |  | 30 to 50% | 30-50% | ~80% | ≥ 0.1 µM | ≥ 0.1 µM | approx. 40% |  | inhibition at 25 µM ([1]; LPS 10 ng/ml, 24 h, read-out: inhibition of LPS-stimulated IL-1 release): ~40%; inhibition at 25 µM ([1]; LPS 10 ng/ml, 24 h, read-out: inhibition of LPS-stimulated isoprostane release): ~40%; doses inhibiting LPS-stimulated IL-1 release ([1]; LPS 10 ng/ml, 24 h): ≥ 0.1 µM; doses inhibiting LPS-stimulated isoprostane release ([1]; LPS 10 ng/ml, 24 h): ≥ 0.1 µM; inhibition of LPS-induced IL-6 [1, 9]: around 80%; enhancement of LPS-mediated MMP9, more than LPS values ([1]; doses of 5-25 μM): 20-60%
4 | C=C(C)[C@H]1CCC(C)=C[C@@H]1c1c(O)cc(CCC)cc1O [(+)-CBDV, (+)-Cannabidivarin] |  |  |  | ≥ 5 µM | ≥ 5 µM | more than 80% |  |  | 33.1 nM |  |  |  |  |  |  |  | ≥ 25 µM | doses enhancing Poly I:C-stimulated MMP1 [4]: 25 µM
5 | COc1ccc(C(=O)c2c(C)n(CCN3CCOCC3)c3cc(I)ccc23)cc1 [AM630] |  |  |  |  |  |  |  |  |  |  |  |  |  |  |  |  |  | CB2 antagonistic activity (CB2 receptor [5]): prevented
